Paper PMC7356761 (Molecules, 2020)

Columns and labels:
[1] = tested on: H3255 cells (EGFR L858R); assay: Cell viability assay (WST-8), H3255; format: cell-based; conditions: Homo sapiens, NCI-H3255, WST-8, 48 h
[2] = tested on: H1975 cells (EGFR L858R/T790M); set-up: method as in PMID 27827863; conditions: previous study ref 25; cited from earlier work
[3] = tested on: H441 cells (wild-type EGFR); assay: Cell viability assay (WST-8), H441; conditions: WST-8, 48 h
[4] = target: wild-type EGFR-TK (Homo sapiens, UniProt P00533); assay: EGFR-TK inhibition assay (ADP-Glo), wild-type; format: biochemical; conditions: EGFR tyrosine kinase wild-type; read-out: IC50 Value, Wild-Type (WT)
[5] = target: EGFR-TK with L858R/T790M mutation (Homo sapiens, UniProt P00533, L858R/T790M); assay: EGFR-TK inhibition assay (ADP-Glo), L858R/T790M; format: biochemical

IC50 [1] [nM] | IC50 [3] [nM] | IC50 [4] [nM] | IC50 ([5]; EGFR tyrosine kinase L858R/T790M) [nM] | SI (WT: L858R/T790M) ([5]; selectivity index, wild-type IC50 to L858R/T790M IC50) | SMILES | IC50 [2] [nM]
150 ± 20 | 260 ± 40 |  |  |  | C=CC(=O)Nc1cccc(Nc2nc(Nc3ccc(N4CCN(C(C)=O)CC4)cc3OC)ncc2C(F)(F)F)c1 [CO-1686, Rociletinib, reference compound] | 137
500 ± 210 | 1840 ± 440 | > 10000 | 310 ± 150 | >32 | C=CC(=O)Nc1cc(I)cc(Nc2nc(Nc3ccc(N4CCN(C(C)=O)CC4)cc3OC)ncc2C(F)(F)F)c1 [compound 10, N-(3-{[2-({4-[4-acetylpiperazin-1-yl]-2-methoxyphenyl}amino)-5-(trifluoromethyl)pyrimidin-4-yl]amino}-5-iodophenyl)acrylamide] | 
